Measurements: paper PMC11738990, “A small-molecule TNIK inhibitor targets fibrosis in preclinical and clinical models” (Nature Biotechnology, 2024)

System: MRC-5 cells
Experiment: TGF-β-induced α-SMA protein expression, western blot
Assay type: cell-based, human
Conditions: TGF-β1 2 ng/ml, 72 h; read-out: IC50, TGF-β-induced α-SMA/GAPDH
Procedure: MRC-5 cells were cultured in a monolayer with DMEM high-glucose medium supplemented with 10% FBS at 37 °C with 5% CO2. Cells were seeded in six-well plates in three replicate wells per condition at a density of 2.5 × 10^5 cells per well and cultured for 24 h. […] Vehicle (2% FBS–DMEM, containing 0.1% DMSO) was added into the blank control group and the model group, and pre-incubation was continued for 2 h. Next, TGF-β1 was added into each well of the administration group and the model group (final concentration in each well was 2 ng ml^−1), and the same volume of vehicle was added into each well of the blank control group for 72 h of incubation (the culture medium was changed once after 48 h of incubation). After incubation, the cells were collected and digested with 0.5% trypsin, protein was extracted and total protein content was determined by the BCA method.
For whole-cell lysates, cells were collected and lysed on ice for 20 min with RIPA buffer with protease and phosphatase inhibitors (cOmplete and PhosSTOP, Roche). The protein concentration of the cell lysates was determined using the BCA Protein Assay Kit. […] Integrated intensity of bands from 16-bit blot images was used for quantitation with the software Image Studio Lite. Protein-quantification data of two independent experiments were calculated and analyzed using GraphPad.

CC(C)n1cnc(-c2ccc(F)cc2)c1-c1nc(C(=O)Nc2ccc(N3CCN(C)CC3)cc2)c[nH]1 [INS018_055, 2-[4-(4-fluorophenyl)-1-(prop-2-yl)imidazol-5-yl]-N-[4-(4-methylhexahydropyrazin-1-yl)phenyl]-1H-imidazole-4-carboxamide]
IC50: 27.1 nM
